Measured values as given in ChEMBL document CHEMBL1201862, “PubChem BioAssay data set” (2004).
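Five concentrations, 48 hours, 96-well plates. At the GI50, growth is halved.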 Calls of active or inactive are those of the source. Rule as the data show it: active = GI50 up to about 1.1 µM and inactive = higher.

Legend:
Assay in all cases: growth of human tumour cells (NCI), 48 h
UO-31 = system: UO-31
A498 = system: A498
OVCAR-8 = system: OVCAR-8
COLO 205 = system: COLO 205
OVCAR-5 = system: OVCAR-5
BT-549 = system: BT-549
DU-145 = system: DU-145
HL-60 = system: HL-60
786-0 = system: 786-0
SR = system: SR
ACHN = system: ACHN
KM12 = system: KM12
NCI/ADR-RES = system: NCI/ADR-RES
UACC-62 = system: UACC-62
EKVX = system: EKVX
SN12C = system: SN12C
UACC-257 = system: UACC-257
IGROV-1 = system: IGROV-1
NCI-H460 = system: NCI-H460
U-251 = system: U-251
HCT-116 = system: HCT-116
SK-OV-3 = system: SK-OV-3
SF-539 = system: SF-539
SNB-19 = system: SNB-19
SNB-75 = system: SNB-75
NCI-H23 = system: NCI-H23
NCI-H522 = system: NCI-H522
MDA-MB-231 = system: MDA-MB-231
CCRF-CEM = system: CCRF-CEM
SF-295 = system: SF-295
MDA-MB-435 = system: MDA-MB-435
HT-29 = system: HT-29
HOP-92 = system: HOP-92
MCF7 = system: MCF7
Hs-578T = system: Hs-578T
MOLT-4 = system: MOLT-4
HCC 2998 = system: HCC 2998
HCT-15 = system: HCT-15
K562 = system: K562
OVCAR-3 = system: OVCAR-3
SK-MEL-5 = system: SK-MEL-5
M14 = system: M14
SF-268 = system: SF-268
LOX IMVI = system: LOX IMVI
T47D = system: T47D
NCI-H226 = system: NCI-H226
HOP-62 = system: HOP-62
OVCAR-4 = system: OVCAR-4
SK-MEL-2 = system: SK-MEL-2
SK-MEL-28 = system: SK-MEL-28
CAKI-1 = system: CAKI-1
SW-620 = system: SW-620
RPMI-8226 = system: RPMI-8226
TK-10 = system: TK-10
RXF 393 = system: RXF 393
A549 = system: A549
PC-3 = system: PC-3

COc1ccc(CCCNC(=O)c2cc(OC)c(OC)cc2CCO)cc1OC
GI50 (UO-31): > 100 µM (inactive) | GI50 (A498): > 100 µM (inactive) | GI50 (OVCAR-8): > 100 µM (inactive) | GI50 (COLO 205): > 100 µM (inactive) | GI50 (OVCAR-5): > 100 µM (inactive) | GI50 (BT-549): > 100 µM (inactive) | GI50 (DU-145): > 100 µM (inactive) | GI50 (HL-60): > 100 µM (inactive) | GI50 (786-0): > 100 µM (inactive) | GI50 (SR): > 100 µM (inactive) | GI50 (ACHN): > 100 µM (inactive) | GI50 (KM12): > 100 µM (inactive) | GI50 (NCI/ADR-RES): > 100 µM (inactive) | GI50 (UACC-62): > 100 µM (inactive) | GI50 (EKVX): > 100 µM (inactive) | GI50 (SN12C): > 100 µM (inactive) | GI50 (UACC-257): > 100 µM (inactive) | GI50 (IGROV-1): > 100 µM (inactive) | GI50 (NCI-H460): > 100 µM (inactive) | GI50 (U-251): > 100 µM (inactive) | GI50 (HCT-116): > 100 µM (inactive) | GI50 (SK-OV-3): > 100 µM (inactive) | GI50 (SF-539): > 100 µM (inactive) | GI50 (SNB-19): > 100 µM (inactive) | GI50 (SNB-75): > 100 µM (inactive) | GI50 (NCI-H23): > 100 µM (inactive) | GI50 (NCI-H522): > 100 µM (inactive) | GI50 (MDA-MB-231): > 100 µM (inactive) | GI50 (CCRF-CEM): > 10 µM (inactive) | GI50 (SF-295): > 100 µM (inactive) | GI50 (MDA-MB-435): > 100 µM (inactive) | GI50 (HT-29): > 100 µM (inactive) | GI50 (HOP-92): > 100 µM (inactive) | GI50 (MCF7): > 100 µM (inactive) | GI50 (Hs-578T): > 100 µM (inactive) | GI50 (MOLT-4): > 100 µM (inactive) | GI50 (HCC 2998): > 100 µM (inactive) | GI50 (HCT-15): > 100 µM | GI50 (K562): > 100 µM (inactive) | GI50 (OVCAR-3): > 100 µM (inactive) | GI50 (SK-MEL-5): > 100 µM (inactive) | GI50 (M14): > 100 µM (inactive) | GI50 (SF-268): > 100 µM (inactive) | GI50 (LOX IMVI): > 100 µM (inactive) | GI50 (T47D): > 100 µM (inactive) | GI50 (NCI-H226): > 100 µM (inactive) | GI50 (HOP-62): > 100 µM (inactive) | GI50 (OVCAR-4): > 100 µM (inactive) | GI50 (SK-MEL-2): > 100 µM (inactive) | GI50 (SK-MEL-28): > 100 µM (inactive) | GI50 (CAKI-1): > 100 µM (inactive) | GI50 (SW-620): > 100 µM (inactive) | GI50 (RPMI-8226): > 100 µM (inactive) | GI50 (TK-10): > 100 µM (inactive) | GI50 (RXF 393): > 100 µM (inactive) | GI50 (A549): > 100 µM (inactive) | GI50 (PC-3): > 100 µM (inactive)
